Experimental data as given in publication PMC4924691, “Inhibition of the p53/hDM2 protein-protein interaction by cyclometallated iridium(III) compounds” (Oncotarget, 2016).
Each block holds one molecule with its values, some of them ahead of it.

Experiments:
HeLa = conditions: read-out: IC50 (MTT), HeLa; human cervix carcinoma, p53 wt, 72 h
Experimental: (§1) The cytotoxicity of 1 towards ten cancers cell lines with different p53 statuses (wt, mut or null) was subsequently examined assessed using the MTT assay (Supplementary Table S2).
(§2) Inhibition of cell growth was measured using the MTT reagent (3-(4, 5-dimethylthiazol-2-yl)-2, 5-diphenyltetrazolium bromide). Different cell lines with variable expression levels of p53 protein (A375, A549, HeLa, A2780, A431, MCF7, MD-MBA-231, MD-MBA-468, T47D and H1299 cell lines) were plated onto 96-well plates at a density of 4, 000 cells/well overnight prior to the addition of 1 at different concentrations ranging from 0.01–100 μM for a further 72 h. 10 μL MTT reagent (5 mg/mL) was added to the wells and the cells were incubated for an additional 4 h before 100 μL of DMSO was added to the wells. The absorbance of each well was read on a SpectraMax M5 microplate reader (Molecular Devices) at the wavelength of 570 nm.

A2780 = conditions: read-out: IC50 (MTT), A2780; human ovarian carcinoma, p53 wt, 72 h
Experimental: as §1, §2

MD-MBA-231 = conditions: read-out: IC50 (MTT), MD-MBA-231; human breast carcinoma, p53 mut, 72 h
Experimental: as §1, §2

T47D = conditions: read-out: IC50 (MTT), T47D; human breast carcinoma, p53 mut, 72 h
Experimental: as §1, §2

H1299 = conditions: read-out: IC50 (MTT), H1299; human lung carcinoma, p53 null, 72 h
Experimental: as §1, §2

MD-MBA-468 = conditions: read-out: IC50 (MTT), MD-MBA-468; human breast carcinoma, p53 mut, 72 h
Experimental: as §1, §2

MCF7 = conditions: read-out: IC50 (MTT), MCF7; human breast carcinoma, p53 wt, 72 h
Experimental: as §1, §2

A549 = conditions: read-out: IC50 (MTT), A549; human lung carcinoma, p53 wt, 72 h
Experimental: as §1, §2

A431 = conditions: read-out: IC50 (MTT), A431; human colon carcinoma (so in the source), p53 wt, 72 h
Experimental: as §1, §2

A375 = conditions: read-out: IC50 (MTT), A375; human malignant melanoma, p53 wt, 72 h
Experimental: as §1, §2

p53/hDM2 interaction [1] = biological target: T1, p53/hDM2 interaction (Homo sapiens, UniProt Q00987); experiment: Fluorescence anisotropy (FA) assay, displacement of p53_15–31Flu from hDM2_17–126; format: binding; conditions: for IC50 / IC50 against the p53/hDM2 interaction as determined by a FA assay: 150 nM hDM2_17–126, 50 nM p53_15–31Flu, 30 min, room temperature; for IC50: read-out: IC50 against the p53/hDM2 interaction as determined by a FA assay; for effect on fluorescence anisotropy / p53/hDM2 interaction: serial dilutions of compound, hDM2_17–126 with p53_15–31Flu
T1 construct: Expression of hDM2_17–126 recombinant fragment was performed as described previously; made in house
Experimental: To experimentally test the library of the organo-metallic iridium(III) compounds as p53/hDM2 PPI inhibitors, a fluorescence anisotropy (FA) assay was performed as previously described. hDM2_17–126 (recombinant fragment) was incubated with fluorescein-labelled p53 peptide (p53_15–31Flu) and serial dilutions of the organometallic iridium(III) compounds.
Figure 2 FA titration data of 1 1 was incubated with 150 nM hDM2_17–126 recombinant fragment and 50 nM fluorescein-labelled p53 peptide (p53_15–31Flu), and fluorescence anisotropy was measured at 480ex/535em.
Expression of hDM2_17–126 recombinant fragment was performed as described previously. Fluorescence anisotropy assays were used to study the displacement of p53 from hDM2 by organometallic compounds. The experiments were performed in triplicate in a volume of 60 μL of the assay buffer (40 mM Na3PO4, pH 7.50, 200 mM NaCl, 0.02 mg/mL BSA) in black flat-bottom 384-well plates. Different concentrations of organometallic compounds were diluted in the assay buffer containing 150 nM hDM2 and 50 nM p53_15–31Flu (Ac-[…](Flu)-NH2, Peptide Protein Research Ltd.) and incubated at room temperature for 30 min. The intensity and anisotropy was monitored at 480ex/535em ([…] bandwidth) using a Perkin Elmer EnvisionTM 2103 MultiLabel plate reader. The data was analyzed according to published methods.

[2] = system: p53 and hDM2 protein expression levels; experiment: Immunoblotting of p53 and hDM2 protein expression in A375 cells; format: cell-based, human; conditions: for effect on hDM2 and p53 protein expression levels: 6 h, up to the highest concentration of 1 μM
Experimental: To assess whether 1 suppressed p53 or hDM2 protein expression levels, resulting in a decrease in the levels of precipitated protein detected in the pull-down assay, an immunoblotting experiment was performed.

p53/hDM2 interaction [3] = system: T2, p53/hDM2 interaction; experiment: Pull-down assay of p53-Flag/hDM2-myc in A375 cells; format: cell-based, human; conditions: for amount of precipitated hDM2 (pulled down with p53-Flag): 6 h of treatment; for effect of isolated ligands on the p53/hDM2 interaction: Supplementary Figure S4
T2 construct: host or cells: A375 cells
Experimental: A pull-down assay was conducted to further examine the effect of 1 on the p53/hDM2 interaction. A375 cells were co-transfected with cDNAs encoding p53-Flag and hDM2-myc fusion proteins. After 6 h of treatment with NVP-CGM097 or 1, p53/hDM2 complexes were immunoprecipitated using anti-Flag magnetic beads and analysed by immunoblotting.
A375 cells seeded in 6-well plates were co-transfected with pcDNA-Flag-p53 (Addgene) and pCMV-myc3-hDM2 (Addgene) for 6 h using TurboFect transfection reagent following the instruction from manufacturer. Cells were then cultured in Dulbecco's Modified Eagle's Medium (DMEM) complete medium overnight. Serial dilutions of organometallic compounds in low FBS buffer were placed into the wells, and incubated with cells for additional 6 h. Protein samples were collected, and the concentration in the supernatant was determined with the bicinchoninic acid (BCA) method. The […] of p53/hDM2 in the protein samples were pulled down using anti-Flag magnetic beads to capture the FLAG fusion proteins (Sigma) as previously described. The protein-binding beads were washed three time with TBS buffer (50 mM Tris HCl, 150 mM NaCl, pH 7.4) to remove non-specifically bound proteins, and subsequently subjected to the sodium dodecyl sulfate-polyacrylamide gel electrophoresis (SDS-PAGE) by detection with anti-Flag (1:1000, Sigma-Aldrich) and anti-myc antibodies (1:1000, Beyotime).

GADD45α, PUMA, p21 = conditions: A375 cells
Experimental: (§3) Transactivation of p53 restricts cellular proliferation by inducing apoptosis and cycle arrest. Therefore, a terminal deoxynucleotidyl transferase (TdT)-mediated dUTP nick and labelling (TUNEL) and Hoechst staining assay were then performed to investigate DNA fragmentation, a hallmark of apoptosis, in apoptotic cells. […] Finally, the effect of 1 on caspase-3/7, an apoptotic executioner under the control of p53, was investigated in A375 cells using a homogeneous luminescence assay.
A375 cells seeded in 6-well plates were treated with vehicle, NVP-CGM097 or different concentrations of 1 for 6 h. Cells were then harvested and the quantity of each protein samples was measured by the BCA method. Same aliquot (30 μg) of each protein sample was separated by SDS-PAGE according to the reported procedure of immunoblotting. The signals were visualized using Enhanced chemiluminescent Plus reagents (GE Healthcare) and analyzed by Image Lab. The primary antibodies used were: anti-PUMA (1:500, Santa Cruz), anti-GADD45α (1:500, Santa Cruz), anti-p21 (1:500, Santa Cruz), anti-GAPDH (1:500, Santa Cruz), anti-p53 (1:500, Santa Cruz) and anti-hDM2 antibodies (1:500, Santa Cruz).

[4] = 298 K
Description: (1 picture or pasted object on this page, not shown here) […]

caspase-3/7 = conditions: A375 cells, 6 h, dose-dependent
Experimental: as §3

A375 cells = conditions: 0.3 μM, 6 h
Experimental: as §3

[5] = system: p53-driven luciferase activity; conditions: A375 cells carrying endogenous wt p53, 6 h
p53/hDM2 PPI = p53/hDM2 PPI (Homo sapiens, UniProt Q00987); conditions: read-out: IC50, decrease of BRET (p53-HaloTag / NanoLuc-hDM2); A375 cells, 6 h
[6] = biological target: T3, hDM2(17-126) recombinant fragment (human, UniProt Q00987 17-126); experiment: fluorescence polarisation; fluorescence anisotropy competition: 150 nM hDM2(17-126) and 50 nM p53(15-31)Flu with serial dilutions of iridium(III) compounds; 40 mM Na3PO4 pH 7.50, 200 mM NaCl, 0.02 mg/mL BSA; room temperature, 30 min; 480ex/535em; conditions: both partners purified
T3 construct: human double minute 2 protein (hDM2, MDM2), human, residues 17-126; also called human double minute 2 protein; source: recombinant fragment, expressed as described previously [33]

Molecule: CCc1ccc2[c](c1)[Ir-3]13([c]4cc(CC)ccc4-c4cccc[n+]41)([n+]1ccccc1-2)[n+]1ccc(Cl)c2ccc4c(Cl)cc[n+]3c4c21.F[P-](F)(F)(F)(F)F [Compound 1, 4,7-dichloro-1, 10-phenanthrolinebis(2-(4-ethylphenyl)pyridine)iridium(III) hexafluorophosphate]
IC50 (HeLa): 480 ± 44.7 nM
IC50 (A2780): 495 ± 32 nM
IC50 (MD-MBA-231): 835 ± 42.9 nM
IC50 (T47D): 783 ± 483 nM
IC50 (H1299): 2200 ± 38.3 nM
IC50 (MD-MBA-468): 1890 ± 23.3 nM
IC50 (MCF7): 547 ± 41 nM
IC50 (A549): 232 ± 21.8 nM
IC50 (A431): 416 ± 37.4 nM
IC50 (A375): 647 ± 35.4 nM
IC50 (p53/hDM2 interaction [1]): 16000 nM
effect on fluorescence anisotropy / p53/hDM2 interaction (p53/hDM2 interaction [1]): decreased significantly
effect on hDM2 and p53 protein expression levels [2]: no effect
amount of precipitated hDM2 (pulled down with p53-Flag) (p53/hDM2 interaction [3]): decreased
expression of GADD45α (GADD45α, PUMA, p21): significantly increased
expression of PUMA (GADD45α, PUMA, p21): significantly increased
expression of p21 (GADD45α, PUMA, p21): induced
time stable in solution (UV-Vis) ([4]; 80% acetonitrile/20% Tris-HCl buffer, 20 μM): at least 7 days
time stable in solution (1H NMR) ([4]; 90% [d6] DMSO/10% D2O, 5 mM): at least 7 days
caspase-3/7 activities (caspase-3/7): significantly activate
DNA fragmentation (TUNEL) (A375 cells): induce DNA fragmentation
p53-dependent luciferase activity [5]: increase
IC50 (p53/hDM2 PPI): ~1000 nM

Molecule: F[P-](F)(F)(F)(F)F.[Ir+3].[c-]1ccccc1-n1cccn1.[c-]1ccccc1-n1cccn1.c1ccc(-c2ccccn2)nc1 [Compound 3, 2, 2′-bipyridinebis(1-phenyl-1H-pyrazole)iridium(III) hexafluorophosphate]
IC50 against the p53/hDM2 interaction as determined by a FA assay (p53/hDM2 interaction [1]): No noticeable binding
effect on fluorescence anisotropy / p53/hDM2 interaction (p53/hDM2 interaction [1]): no noticeable effect

Molecule: Clc1cc2ccc[n+]3c2c2c1ccc[n+]2[Ir-3]312([c]3ccccc3-c3sc4ccccc4[n+]31)[c]1ccccc1-c1sc3ccccc3[n+]12.F[P-](F)(F)(F)(F)F [Compound 4, 5-chloro-1, 10-phenanthrolinebis(2-phenylbenzo[d]thiazole)iridium(III) hexafluorophosphate]
IC50 against the p53/hDM2 interaction as determined by a FA assay (p53/hDM2 interaction [1]): No noticeable binding
effect on fluorescence anisotropy / p53/hDM2 interaction (p53/hDM2 interaction [1]): no noticeable effect

Molecule: F[P-](F)(F)(F)(F)F.c1cc[c]2c(c1)-c1ccc3ccccc3[n+]1[Ir-3]213([c]2ccccc2-c2ccc4ccccc4[n+]21)[n+]1cccc2c4nccnc4c4ccc[n+]3c4c21 [Compound 5, pyrazino[2,3-f][1, 10]phenanthrolinebis(2-phenylquinoline)iridium(III) hexafluorophosphate]
IC50 (p53/hDM2 interaction [1]): 21000 nM
effect on fluorescence anisotropy / p53/hDM2 interaction (p53/hDM2 interaction [1]): decreased significantly

Molecule: Clc1cc2nc3c4cccnc4c4ncccc4c3nc2cc1Cl.F[P-](F)(F)(F)(F)F.Fc1c[c-]c(-c2ccccn2)c(F)c1.Fc1c[c-]c(-c2ccccn2)c(F)c1.[Ir+3] [Compound 6, 11, 12-dichlorodipyrido[3,2-a:2′,3′-c]phenazinebis(2-(2,4-difluorophenyl)pyridine)iridium(III) hexafluorophosphate]
IC50 (p53/hDM2 interaction [1]): 33000 nM
effect on fluorescence anisotropy / p53/hDM2 interaction (p53/hDM2 interaction [1]): decreased significantly

Molecule: COc1cc2c(cc1OC(C)C)[C@H](c1ccc(Cl)cc1)N(c1ccc(N(C)C[C@H]3CC[C@H](N4CCN(C)C(=O)C4)CC3)cc1)C(=O)C2 [NVP-CGM097, reference compound]
expression of hDM2 protein ([2]; 1 μM): significantly increased
amount of precipitated hDM2 (pulled down with p53-Flag) (p53/hDM2 interaction [3]): decreased

Molecule: Clc1ccnc2c1ccc1c(Cl)ccnc12 [dcphen, 4,7-dichloro-1, 10-phenanthroline]
effect on hDM2 and p53 protein expression levels [2]: Neither eppy nor dcphen ligands were found to have a significant effect
effect of isolated ligands on the p53/hDM2 interaction (p53/hDM2 interaction [3]): Neither eppy nor dcphen ligands were found to have a significant effect

Molecule: CCc1ccc(-c2ccccn2)cc1 [eppy, 2-(4-ethylphenyl)pyridine]
effect on hDM2 and p53 protein expression levels [2]: Neither eppy nor dcphen ligands were found to have a significant effect
effect of isolated ligands on the p53/hDM2 interaction (p53/hDM2 interaction [3]): Neither eppy nor dcphen ligands were found to have a significant effect

binding result [6]: binds
B1: fluorescein-labelled p53 peptide (p53 15-31 Flu) (peptide)
peptide: SQETFSDLWKLLPENNVC
modifications: N-terminal acetyl (Ac-); fluorescein on the C-terminal cysteine, C(Flu); C-terminal amide (-NH2)
notes: added C-terminal cysteine that carries the fluorescein; not part of p53 15-31; source: synthetic peptide, bought: Peptide Protein Research Ltd
